Assay results: patent publication US20120041070A1, “METHODS OF TREATING CANCER HAVING AN ABERRANT EGFR OR KRAS GENOTYPE” (priority 2009, published 2012)
Like-named read-outs stand apart in the source and are kept apart here.

Legend:
[1] = tested on: A549 NSCL (KRAS mutant) cells; assay: A549 cell proliferation assay (Cell TiterGlow, total ATP); assay type: cell-based; details: for EC50: Homo sapiens, A549, DMEM 10% FBS, 72 hours, Cell TiterGlow, read-out: EC50, inhibition of A549 cell proliferation
Method: To investigate the effect of phenformin on proliferation of a commonly used cancer cell line A549 NSCL (KRAS mutant), a cell proliferation assay was performed. A549 cells were grown in DMEM with 10% FBS, and were treated with designated concentrations (phenformin dose range 0-100 μM; metformin dose range 0-3000 μM) of drugs for 72 hours. Cell viability was determined with Cell TiterGlow to measure total ATP content in live cells.

[2] = tested on: HME-TERT-EGFR (del E746-A750) cells; assay: MTS cell proliferation assay, HME-TERT cells carrying EGFR mutation; assay type: cell-based, human; details: for EC50: Homo sapiens, HME-TERT-EGFR (del E746-A750), MTS, 0.5% FBS, read-out: Inhibition of cell proliferation: EC50, EGFR
Method: (§1) To investigate the effect of phenformin on proliferation of cells carrying an EGFR mutation, HME cell proliferation assays were performed. An isogenic HME-TERT cell line carrying a mutation in EGFR (del E746-A750) was generated by a “knock in” approach. HME-TERT-EGFR (del E746-A750) cells and control HME parental cells were cultured in DMEM/F12K (glucose 17 mM, glutamine 2.5 mM) with 0.5% FBS, and were treated with a series of dilution of Paclitaxel (100 nM top concentration, 3-fold dilution), Phenformin (3 mM top concentration, 3-fold dilution), or metformin (10 mM top concentration, 3-fold dilution), in duplication or triplication. MTS assays were performed 48, 72, 96 or 120 hours after drug treatment. MTS assay is a colorimetric assay for determining the number of viable cells (see, e.g., Cory A H et al., 1991, Cancer communications 3 (7): 207-12, and Wilson, A P, Cytotoxicity and Viability Assays in Animal Cell Culture: A Practical Approach, 3rd ed. (ed. Masters, J. R. W.) Oxford University Press, 2000, Vol. 1). […] Z′ is defined as Z′=1-3(MAX stdev−background stdev)/(MAX−background). A Z′ value greater than 0.4 is acceptable for cell assays, and a Z′ value greater than 0.6 is acceptable for enzyme assays.

[3] = tested on: HME-TERT-KRAS (G13D) cells; assay: MTS cell proliferation assay, HME-TERT cells carrying KRAS mutation; assay type: cell-based, human; details: for EC50: Homo sapiens, HME-TERT-KRAS (G13D), MTS, 0.5% FBS, read-out: Inhibition of cell proliferation: EC50, KRAS
Method: (§2) To investigate the effect of phenformin on proliferation of cells carrying a KRAS mutation, HME cell proliferation assays were performed. An isogenic HME-TERT cell line carrying a mutation in KRAS (G13D) was generated by a “knock in” approach. HME-TERT-KRAS (G13D) cells and control HME parental cells were cultured in DMEM/F12K (glucose 17 mM, glutamine 2.5 mM) with 0.5% FBS, and were treated with a series of dilution of Paclitaxel (100 nM top concentration, 3-fold dilution), Phenformin (3 mM top concentration, 3-fold dilution), or metformin (10 mM top concentration, 3-fold dilution), in duplication or triplication. MTS assays were performed 48, 72, 96 or 120 hours after drug treatment. MTS assay is a colorimetric assay for determining the number of viable cells (see, e.g., Cory A H et al., 1991, Cancer communications 3 (7): 207-12, and Wilson, A P, Cytotoxicity and Viability Assays in Animal Cell Culture: A Practical Approach, 3rd ed. (ed. Masters, J. R. W.) Oxford University Press, 2000, Vol. 1). […] Z′ is defined as Z′=1-3(MAX stdev−background stdev)/(MAX−background). A Z′ value greater than 0.4 is acceptable for cell assays, and a Z′ value greater than 0.6 is acceptable for enzyme assays.

[4] = tested on: HME-TERT parental (wild type) cells; assay: MTS cell proliferation assay, control HME parental (WT) cells; assay type: cell-based; details: Homo sapiens, 0.5% FBS, read-out: Inhibition of cell proliferation: EC50, WT
Method: as §1, §2

Row | SMILES | fold more sensitive than metformin in inhibiting the proliferation of A549 cells ([1]; A549, 72 hours, ratio of EC50 values) | EC50 [1] [µM] | EC50 ([2]; 48 h) [µM] | EC50 ([2]; 72 h) [µM] | EC50 ([2]; 96 h) [µM] | EC50 ([2]; 120 h) [µM] | inhibition of proliferation of EGFR mutated HME cells compared with wild type cells ([2]; MTS assay, result in words) | EC50 ([3]; 48 h) [µM] | EC50 ([3]; 72 h) [µM] | EC50 ([3]; 96 h) [µM] | EC50 ([3]; 120 h) [µM] | inhibition of proliferation of KRAS mutated HME cells compared with wild type cells ([3]; MTS assay, result in words) | EC50 ([4]; 48 h after drug treatment) [µM] | EC50 ([4]; 72 h after drug treatment) [µM] | EC50 ([4]; 96 h after drug treatment) [µM] | EC50 ([4]; 120 h after drug treatment) [µM]
1 | N=C(N)NC(=N)NCCc1ccccc1 [phenformin] | about 112 fold | 5 | 1680 | 632 | 486 | 393 | more than that of wild type cells | 1640 | 1250 | 727 | 440 | more than that of wild type cells | 2090 | 1690 | 1140 | 626
2 | CN(C)C(=N)N=C(N)N [metformin] |  | 650 | > 3000 | > 3000 | > 3000 | > 3000 |  | > 3000 | > 3000 | > 3000 | > 3000 |  | > 3000 | > 3000 | > 3000 | > 3000
